Entries after “also recorded” stand apart in the source; their conditions may differ.
Columns and labels:
C57 WT mice = test: Echocardiographic evaluation of contractility (EF) after bolus IV probenecid; format: in vivo, mouse; details: for peak change in EF: WT mice
Description: Echocardiographic evaluation. In order to obtain a dose response curve, male C57 WT (n=39) mice 12-16 weeks of age were anesthetized with isoflurane while intravenous jugular access (IV) was obtained under a microscope as previously described. Subsequently, an echocardiographic study with both M-mode and B-mode was obtained in parasternal long axis (PSLAX) as described below. […] Echocardiography—All echocardiographic studies were performed with a Vevo 2100 Ultrasound system (Visualsonics, Toronto Calif.) with an MS400 probe (30 MHz centerline frequency) and were post-processed at a separate workstation with Vevostrain software (Vevo 2100, v1.1.1 B1455, Visualsonic, Toronto, Canada). Images were obtained from PSLAX and short axis (SAX) views at depths between 2 and 10 mm in both M-mode and B-mode. All studies on mice exposed to I/R injury included M-mode, B-mode in PSLAX and strain imaging in SAX. While for the contractility studies, only M-mode measurements were obtained from the PSLAX. Strain imaging was performed from the B-mode images and regional radial strain and circumferential displacement were measured by regional wall and summed average from the SAX images. From the M-mode images, left ventricular cavity size and wall thickness was measured and the ejection fraction (EF) and fractional shortening (FS) calculations were obtained using the Vevo software. The change in the EF, FS, as well as strain derived parameters was obtained by subtracting the baseline value from each individual subject against subsequent time-points. In addition, the average change from baseline for each time point between 5 and 30 minutes was determined for each mouse, with measurements being taken every 5 minutes. These averages were compared between the different groups.

WT mice [1] = test: In vivo electrophysiology (electrocardiographic data during echo studies); parameters: species or system mouse
Description: In vivo electrophysiology—Electrocardiographic data was obtained during all echocardiographic studies. These studies were subsequently analyzed by an independent, blinded reader at all time points to evaluate for electrocardiographic changes and drug induced arrhythmias. The following parameters were measured: PR interval, RR interval, QRS width and were reported as peak change while the presence of supraventricular or ventricular arrhythmias was measured as a total observed over all images obtained in 30 minutes.

WT mice [2] = test: Invasive evaluation of +dP/dt (LV pressure catheter); format: in vivo, mouse; details: 30 mg/kg and 100 mg/kg bolus IV, 5 minutes between doses
Description: Invasive evaluation.—Once a dose range was established, a separate group of WT mice were anesthetized with an intraperitoneal injection of ketamine (50 μg/g) and inactin (thiobutabarbital, 100 μg/g, Sigma, Mass.). A tracheotomy was performed (PE-90), and body temperature was monitored and maintained with a feedback-controlled heating table. The right femoral artery was cannulated with fluid-filled polyethylene tubing for measurement of blood pressure and connected to a low compliance pressure transducer (COBE Cardiovascular, Arvada, Colo.). The right femoral vein was cannulated for delivery of drugs. A high fidelity, 1.2-French SciSence pressure catheter (SciSence, London, ON, Canada) was inserted into the right carotid artery and advanced into the left ventricle to monitor cardiac performance. ECG leads were placed on the right and left arms, and left leg and connected to a BIOAmp (AD Instruments, Colorado Springs, Colo.). For carotid blood flow measurements, the left carotid artery was isolated and fitted with a 0.5-PSB perivascular flow probe connected to a TS420 flowmeter (Transonic Systems, Ithaca, N.Y.). […] Hemodynamic variables were collected and analyzed using a MacLab 4/S system (AD Instruments, Colorado Springs, Colo.) and Chart software.

HL-1 cells = test: Imaging and measurement of Ca2+ fluorescence in HL-1 cells; format: cell-based
Description: Imaging and measurement of Ca2+ fluorescence.—HL-1 cells were obtained as described above. Dissociated cells were plated on glass cover-slip (GG-25-polylysine #1, Neuvitro, Calif.) placed inside each well of six-well plates (BD Falcon). Acquisition of images were done at 40-65 Hz by using LSM 510 Meta system equipped with the inverted Axiovert 200 M BP (Carl Zeiss Microscopy, LLC, Thornwood, N.Y.) and LSMS Software. Image acquisition was done with Plan-Apochromat 40×/water with frame size of 512 (X) and 256(Y). To optimize the speed of acquisition, the acquisition area was limited to a few cells. […] Peak fluorescence before perfusion (F0) and that after perfusion (F) were determined manually after acquisition of images from the saved LSM files. Circular areas within the cytosol of each cell of the saved images over the entire duration of respective experiments were used to determine changes in fluorescence before and after perfusion. Normalized fluorescence, determined as a quotient of F/F0, was used as a variable to compare the relative changes in fluorescence at different incremental concentrations during statistical analyses. […]

mice after I/R injury = test: Ischemia/Reperfusion followed by probenecid bolus (echocardiography); format: in vivo, mouse
Description: Ischemia/Reperfusion methods—Mice were anesthetized with sodium pentobarbital and the heart exposed through a left thoracotomy at the level of the fourth intercostal space. The mice were intubated and placed on a mini-ventilator (Harvard apparatus, Holliston, Mass.). A loop occluder was placed around the left anterior descending artery (LAD), and tightened, occluding it for either 30 minutes or 45 minutes. After surgery, the thorocotomy was sutured in layers, and the animal was allowed to recover. Echocardiography methods—All echocardiographic studies were performed as previously described for Example 1. […] The mice were imaged at 5 minute intervals for a total of 30 minutes.

mice subjected to I/R = test: Probenecid bolus followed by Ischemia/Reperfusion (infarct size, echocardiography); format: in vivo, mouse; details: IV pretreatment
Description: Ischemia/Reperfusion methods—Mice were anesthetized with sodium pentobarbital and the heart exposed through a left thoracotomy at the level of the fourth intercostal space. The mice were intubated and placed on a mini-ventilator (Harvard apparatus, Holliston, Mass.). A loop occluder was placed around the left anterior descending artery (LAD), and tightened, occluding it for either 30 minutes or 45 minutes. After surgery, the thorocotomy was sutured in layers, and the animal was allowed to recover. […] At twenty-four hours post-I/R, echocardiography was performed and the hearts subsequently removed for determination of infarct size and normalized to the risk region.

`CCCN(CCC)S(=O)(=O)c1ccc(C(=O)O)cc1` [probenecid] was tested, and the “peak change in EF” value (C57 WT mice; 75 mg/kg bolus IV) was 5.26±3.35, the “peak change in EF” value (C57 WT mice; 100 mg/kg bolus IV) was 8.40±2.80 and the “time EF remained at an elevated state” value (C57 WT mice; 200 mg/kg IV, n=5) was “at least 1 hour”. For the same molecule, the “average increase in EF over baseline” value (C57 WT mice; 200 mg/kg IV, n=5, evaluated for a longer period (at least 1 hour)) was 8.9±2.57, the “echocardiographic changes (FIG. 1B)” value (C57 WT mice; FIG. 1B legend) was “did not result in any echocardiographic changes” and the “time after bolus injection at which increased contractility was noted” value (C57 WT mice; all doses at or above 75 mg/kg IV) was no more than 5 min. The “estimated EC50 of dose dependent increase in contractility (EF)” value (C57 WT mice; bolus IV, measured at 5 minute intervals for 30 minutes total) was 49.33 mg/kg, the “electrocardiographic differences between WT and TRPV2−/− mice (FIG. 2D)” value (WT mice [1]; 100 mg/kg IP) was “no significant differences” and the “changes in conduction intervals (RR, PR, QRS)” value (WT mice [1]; all doses) was “no measured changes in any conduction intervals; also recorded: no significant changes in any of the measured electrocardiographic variables”. The “supraventricular or ventricular arrhythmias, premature beats” value (WT mice [1]; any dose of probenecid, observed over 30 minutes) was “No supraventricular or ventricular arrhythmias or premature atrial or ventricular beats were observed; also recorded: no arrhythmias”, the “peak +dP/dt in vivo” value (WT mice [2]) was “rapidly increased” and the “median peak cytosolic fluorescence after vs before perfusion” value (HL-1 cells; higher probenecid concentrations (up to 10^−4)) was “significantly higher”. The “median peak cytosolic fluorescence before vs after perfusion” value (HL-1 cells; probenecid 10^−8) was “No significant differences”, the “EF after I/R injury” value (mice after I/R injury; 100 mg/kg IP bolus, all treated mice) was “statistically significant increase in EF” and the “change in EF at peak effect” value (mice after I/R injury; 100 mg/kg IP, 10 minutes, mice with initial EF 50-60%) was 19.72±4.10%. The “time of peak effect on EF” value (mice after I/R injury; 100 mg/kg IP, mice with initial EF 50-60%) was 10 min, the contractility over time (mice after I/R injury; 100 mg/kg IP, mice with lower initial EFs (40-50%)) was “continued to enhance contractility throughout the full 30-minute experiment” and the “systolic function (EF and global circumferential strain), pretreated vs saline” value (mice subjected to I/R; 30 and 45 minute ischemia) was “not significantly different; also recorded: no difference”. The “infarct size, pretreated vs saline control” value (mice subjected to I/R; 30 and 45 minute ischemia, 24 hours of reperfusion) was “not significantly different; also recorded: no difference”, the “radial displacement of the anterior wall” value (mice subjected to I/R; 30 minutes ischemia, saline 0.43±0.02) was 0.46±0.06 mm and the “radial displacement of the anterior wall” value (mice subjected to I/R; 45 minutes ischemia, saline 0.36±0.03) was 0.35±0.06 mm. For the same molecule, the “radial displacement, pretreated vs control” value (mice subjected to I/R; either time point) was “no difference between the treatment groups”.

Source: patent US10806711B2 (priority 2011, dated 2020)
